# Several values for one entry are separate records, joined by “and”; a condition that tells them apart may be missing. Identical values can stand only once. Like-named read-outs stand apart in the source and are kept apart here.
# Tests used:
# [1] = Experimentally determined pKa
# σ1R homomer = σ1R homomer (Homo sapiens, UniProt Q99720); test: Drug induced σ1R homomer BRET; format: cell-based; details: for effect on σ1R homomer BRET signaling: 2.5-60 min
# σ1R [2] = molecular target: T1, σ1R (Homo sapiens, UniProt Q99720); format: binding; details: for displacement kinetics of [3H]-(+)-pentazocine: membrane preparation and whole cells, 15 min of incubation
# T1 sequence (Q99720 whole entry): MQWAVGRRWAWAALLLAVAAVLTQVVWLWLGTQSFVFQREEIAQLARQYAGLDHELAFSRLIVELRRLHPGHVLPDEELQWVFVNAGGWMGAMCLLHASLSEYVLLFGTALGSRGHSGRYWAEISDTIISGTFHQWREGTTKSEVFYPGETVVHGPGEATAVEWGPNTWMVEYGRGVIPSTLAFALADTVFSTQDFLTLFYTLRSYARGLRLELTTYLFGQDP
# σ1R [3] = molecular target: σ1R (Cavia porcellus, UniProt Q60492); test: σ1R radioligand binding in guinea pig cortex with [3H]-
# Chain of σ1R (Cavia porcellus, UniProt Q60492) (Q60492 whole entry): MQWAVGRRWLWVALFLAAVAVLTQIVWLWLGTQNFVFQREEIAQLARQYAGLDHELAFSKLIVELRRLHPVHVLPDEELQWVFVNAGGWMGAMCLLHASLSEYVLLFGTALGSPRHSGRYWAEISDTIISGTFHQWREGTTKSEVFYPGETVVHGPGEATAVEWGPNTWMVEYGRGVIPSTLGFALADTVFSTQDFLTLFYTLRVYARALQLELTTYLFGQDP
# σ1R [4] = molecular target: T1, σ1R; format: binding; details: HEK 293T membrane; for Ki: read-out: Ki ± SEM, competition vs. 3 nM [3H]-(+)-pentazocine
# σ1R [5] = molecular target: T1, σ1R; format: binding; details: read-out: Ki ± SEM; competition vs. 2 nM [3H]-haloperidol, HEK 293T membrane
# [6] = 1 μM haloperidol or 1 μM PD144418 added prior to tested ligand
# [7] = single-ligand mode, σ1-NL:σ1-VN
# [8] = read-out: Ki ± SEM, competition vs. 3 nM [3H]-(+)-pentazocine, guinea pig cortex
# Chain of σ1R homomer (Q99720 whole entry): as the sequence (Q99720 whole entry) above
# Chain of σ1R homomer (Q99720 whole entry): as above
structure (smiles),measurement,setting,value
CC(C)=CCN1CC[C@]2(C)c3cc(O)ccc3C[C@H]1[C@H]2C [(+)-pentazocine],pKa,[1],9.2 to 9.3
"O=C(OCCN1CCOCC1)C1(c2ccccc2)CCCCC1 [PRE-084, 2-(4-morpholinethyl)1 phenylcyclohexanecarboxylate]",effect on σ1R homomer BRET in competition mode,σ1R homomer; [6],dose-dependent effects
same,effect on σ1R homomer BRET signaling,σ1R homomer; [7],no detectable effects on BRET signaling
same,displacement of [3H]-(+)-pentazocine,"σ1R [2]; membrane preparation, 15 and 120 min",92.4–96.1%
same,displacement of [3H]-(+)-pentazocine,"σ1R [2]; whole cell assay, 15 min",60.6%
same,displacement of [3H]-(+)-pentazocine,"σ1R [2]; whole cell assay, 120 min",below 76.1%
same,experimentally determined pKa,[1],6.2
COC(=O)[C@H]1[C@@H](OC(=O)c2ccccc2)C[C@@H]2CC[C@H]1N2C [cocaine],Ki,σ1R [3],3710 ± 1170 nM
same,effect on σ1R homomer BRET in competition mode,σ1R homomer; [6],dose-dependent effects
same,effect on σ1R homomer BRET signaling,σ1R homomer; [7],no detectable effects on BRET signaling
CC(C)=CCN1CC[C@]2(C)c3cc(O)ccc3C[C@H]1[C@H]2C [[^3H]-(+)-pentazocine],Bmax ± SEM,σ1R [4]; [3H]-(+)-pentazocine,2080 fmol/mg and 2080 ± 163 fmol/mg
CCCCN1[C@@H]2CC[C@H]1CC(OC(c1ccc(F)cc1)c1ccc(F)cc1)C2 (some centres unmarked) [JHW007],Ki,σ1R [4],0.554 ± 0.172 nM
same,Ki,σ1R [3]; [8],1.48 ± 0.289 nM
same,effect on σ1R homomer BRET in competition mode,σ1R homomer; [6],dose-dependent effects
same,effect on σ1R homomer BRET signaling,σ1R homomer; [7],no detectable effects on BRET signaling
same,Ki,σ1R [5],1.85 ± 0.0579 nM
same,displacement kinetics of [3H]-(+)-pentazocine,σ1R [2],immediate displacement
CCCN1CCC=C(c2cc(-c3ccc(C)cc3)no2)C1 [PD144418],Ki,σ1R [4],0.894 ± 0.11 nM
same,Ki,σ1R [3]; [8],0.842 ± 0.307 nM
same,Emax (basal subtracted BRET change),σ1R homomer; [7],~0.02
same,effect on σ1R homomer BRET signaling,σ1R homomer; [7],positive dose-dependent induction of BRET signaling
same,Ki,σ1R [5],2.67 ± 0.578 nM
c1ccc(CCCCN2CCC(c3ccccc3)CC2)cc1 [4-PPBP],Ki,σ1R [3]; [8],0.857 ± 0.153 nM
same,effect on σ1R homomer BRET in competition mode,σ1R homomer; in the presence of 1 μM PD144418,positive BRET signals were induced
same,effect on σ1R homomer BRET signaling,σ1R homomer; [7],positive dose-dependent induction of BRET signaling
CCCN(CCC)CCc1ccc(OC)c(OCCc2ccccc2)c1 [NE-100],Ki,σ1R [3]; [8],1.14 ± 0.283 nM
same,effect on σ1R homomer BRET in competition mode,σ1R homomer; [6],dose-dependent effects
same,effect on σ1R homomer BRET signaling,σ1R homomer; [7],no detectable effects on BRET signaling
same,displacement kinetics of [3H]-(+)-pentazocine,σ1R [2],immediate displacement

# — article PMC5858991 (Neuropharmacology, 2018)
